Assay results published in publication PMC7357169, “Blinded, Multicenter Evaluation of Drug-induced Changes in Contractility Using Human-induced Pluripotent Stem Cell-derived Cardiomyocytes” (Toxicological Sciences, 2020).
Entries after “also recorded” stand apart in the source; their conditions may differ.

Legend:
cardiac contractility = conditions: cited from earlier work; for EC50: read-out: Expected effect on contractility in isolated cardiomyocytes/heart muscles, EC50
heart = test system: heart; parameters: method as in Refs column of Supplementary Table 1; conditions: Refs of Supplementary Table 1; cited from earlier work
ERC18 hiPSC-CM EHTs [1] = assay: Engineered heart tissue (EHT) contractility, ERC18 hiPSC-CMs; format: cell-based, human; conditions: for changes in CA on the EHT platform: one range given for three NE drugs incorrectly predicted as PIs, EHT: ERC18 per Table 1
From the text: (§1) To generate EHTs, in-house hiPSC lines, R-PAT, and ERC18, were differentiated using 2D-monolayer- (R-PAT) or 3D-embryoid body- (ERC18) protocol and fabricated as recently described ([Breckwoldt et al., 2017]; [Mosqueira et al., 2018]). In brief, casting molds were generated in 24-well plates with 2% agarose (Invitrogen, 15510-019) and Polytetrafluorethylene (PTFE) spacers (EHT Technologies, C0002). PDMS racks (EHT Technologies, C0001) were placed in the 24-well plates so that pairs of PDMS posts reached into each agarose casting mold. A reconstitution mix was prepared consisting of: 1 × 10^6 hiPSC-CM; 81.9 µl cardiomyocyte medium; 10 µl Matrigel basement membrane matrix (BD 354234); 5.5 µl 2 × DMEM; 0.1 µl Y-27632 (10 mM; Biorbyt orb60104); 2.5 µl bovine fibrinogen (5 mg/ml; Sigma F4753). Reconstitution mix (97 µl) was mixed with prealiquoted 3 µl thrombin (100 U/ml; Biopur BP11-10-1104) and pipetted into the agarose casting mold. GCAMP6f-lentiviral particles (multiplicity of infection: 0.3, functional titer) were included in the EHT reconstitution mix for Ca^2+ transient analysis. EHTs started to beat coherently after 10–14 days and were analyzed for contraction and Ca^2+ transient at ≥ 20 days.
(§2) EHTs were transferred from culture medium into preequilibrated (37°C, 40% O2, 7% CO2), modified Tyrode’s solution (in mM, 120 NaCl; 22.6 NaHCO3; 5.4 KCl; 5 glucose; 1 MgCl2; 0.4 NaH2PO4; 0.6–1 CaCl2; 0.05 Na2EDTA; 25 HEPES) for R-PAT and into DMEM (Gibco 21068028; in mM, 110 NaCl; 44 NaHCO3; 5 KCl; 25 glucose; 0.8 MgSO4; 0.9 NaH2PO4, 0.6–1 CaCl2; 25 HEPES, and vitamins and amino acids) for ERC18 EHTs 40 min before analysis to equilibrate to the testing medium. After equilibration, the cumulative concentration response curve was started with baseline recording in preequilibrated medium with Ca^2+ concentration of 0.6–1 mM.
(§3) Contractility analysis was via automated video-optical contractility analysis was performed in 24-well cell culture plates (Nunc, 122475) ([Breckwoldt et al., 2017]). Video files of EHT contractions were analyzed by automated EHT figure recognition software (EHT Technologies, A0001). Top and bottom ends of EHT contour were identified and followed during the course of recording. Force was calculated based on shortening during contraction, elastic propensity, and geometry of PDMS posts.
(§4) Data were normalized to a pool of time-matched controls (contractility analysis, ERC18: n = 22 EHTs/7.0 experiments; R-PAT: 16 EHTs/5.0 experiments; combined contractility- and Ca^2+ transient-analysis: 21 EHTs/8.0 experiments) used for all contractility/combined contractility- and Ca^2+ transient-measurements. Data are plotted as relative change to the mean baseline, normalized to pool time control. Statistical significance was evaluated by GraphPad Software, 1-way ANOVA with Dunnett’s multiple comparisons test versus baseline.

[2] = cited from earlier work; for FTPC: free therapeutic plasma concentration, Refs of Supplementary Table 1; for FPTC (free plasma therapeutic concentration): ref Supplementary Table 1
R-PAT hiPSC-CMs [3] = assay: CellOPTIQ (CO) contractility, R-PAT hiPSC-CM 2D monolayers; format: cell-based, human; conditions: mean maximum measurable percentage change relative to baseline, at concentration of column Conc μM or cell superscript
Procedure: Manufacturer instructions were followed for the commercial hiPSC lines. […] The same plates were used for R-PAT hiPSC-CMs, which were seeded at 40 000 cells/well and maintained until days 20 and 21 of differentiation before use.
hiPSC-CMs in 96-well plate were transiently loaded in 50 µl/well of SFM containing FluoVolt (1:200 part B, 1:2000 part A; Life Tech, F10488) for 20 min at 37°C and 5% CO2. After incubation, the medium was replaced with 200 μl/well of SFM. Plates were then incubated at 37°C and 5% CO2 for 15 min before recording, which were made using a ×40 (NAO.6) objective at 10 KHz. […] Baselines and drug addition were as described for the TTM system. Electrophysiology data were analyzed using CellOPTIQ proprietary software of Clyde Biosciences and were normalized to a maximum amplitude of 1 and minimum of 0 to standardize height for comparison of traces created in OriginPro (OriginLab version 7.5). Contractility data were analyzed based on pixel displacement using an ImageJ plug-in. This plug-in uses a sum of absolute differences algorithm.

R-PAT hiPSC-CM EHTs = assay: Engineered heart tissue (EHT) contractility, R-PAT hiPSC-CMs; format: cell-based, human
From the text: as §1, §2, §3, §4

ERC18 hiPSC-CM EHTs [4] = conditions: EHT:ERC; 100 µM doxorubicin
Procedure: For long-term contractility analysis of sunitinib, hiPSC-CM EHTs were equilibrated to regular cell culture medium without serum (DMEM, Biochrom F0415; penicillin/streptomycin 1% [volume/volume], Gibco 15140; aprotinin 5 µM, Sigma-Aldrich A1153; insulin 1.7 µM, Sigma-Aldrich I9278; glutamine 2000 µM, Gibco 25030-081; triiodothyronine 0.77 nM, European Commission-Joint Research Center IRMM-469; hydrocortisone 137 µM: Sigma-Aldrich H0888). Medium change, drug addition and video-optical contractility analysis was performed daily and contraction data was normalized to time control.
The EHT:ERC platform-cell combination was exposed to 100 µM doxorubicin (C) or 1 µM sunitinib (D) for up to 17.5 hr (C) or up to 8 days (D). CA is shown normalized to time controls.

R-PAT hiPSC-CMs [5] = assay: CO:R-PAT contractility after 24 h exposure
From the text: We asked whether longer term exposure would affect contractility (Supplementary Figure 7).
Prolonged exposure detects NIs in 2D and 3D cultures of hiPSC-CMs. […] CA is shown normalized to time controls.

hiPSC-CMs [6] = assay: CellOPTIQ voltage (FluoVolt) analysis, hiPSC-CMs; format: cell-based, human
Procedure: hiPSC-CMs in 96-well plate were transiently loaded in 50 µl/well of SFM containing FluoVolt (1:200 part B, 1:2000 part A; Life Tech, F10488) for 20 min at 37°C and 5% CO2. After incubation, the medium was replaced with 200 μl/well of SFM. Plates were then incubated at 37°C and 5% CO2 for 15 min before recording, which were made using a ×40 (NAO.6) objective at 10 KHz. […] Electrophysiology data were analyzed using CellOPTIQ proprietary software of Clyde Biosciences and were normalized to a maximum amplitude of 1 and minimum of 0 to standardize height for comparison of traces created in OriginPro (OriginLab version 7.5). Contractility data were analyzed based on pixel displacement using an ImageJ plug-in. […]
Action potential duration (APD30, APD90) and triangulation (APD90–APD30) were calculated from voltage waveforms to determine whether electrophysiology was altered, including the appearance of arrhythmias. For Ca^2+ handling, amplitude, time to peak, and decay time were assessed, whereas similar parameters (contraction amplitude [CA], contraction time [CT], and relaxation time [RT]) were derived for contraction (Supplementary Figure 2). […]

hiPSC-CMs [7] = assay: Training set contractility in hiPSC-CMs on TTM, CellOPTIQ and EHT platforms; format: cell-based, human; conditions: for inotropy (CA) response: trend or significant response, Supplementary Figure 3
Procedure: The training set of 8 drugs was used to test and refine protocols. […] For each parameter, the percentage change in drug-treated samples relative to their respective vehicle control was calculated using the formula ([drug/drug baseline]/[vehicle/vehicle baseline])*100–100. […] These studies allowed unification of SOPs, although physical and technical constraints between the platforms meant that some unavoidable differences remained (Supplementary Table 2).
Supplementary Figure 3: Training sets to unify drug testing procedures. […] The percentage change in drug treated samples is relative to their respective vehicle control. Unpaired T-test. * p<0.05; ** p<0.01; *** p<0.001; **** p<0.0001.

[8] = isolated cardiomyocytes/heart muscles, Refs of Supplementary Table 1
[9] = EHT: ERC18, mean maximum measurable percentage change relative to baseline, at concentration of column Conc μM or cell superscript
[10] = EHT: R-PAT, mean maximum measurable percentage change relative to baseline, at concentration of column Conc μM or cell superscript

Compound: CCCCNC(=O)NS(=O)(=O)c1ccc(C)cc1 [Tolbutamide]
- Expected effect on contractility in isolated cardiomyocytes/heart muscles (cardiac contractility; [8]): None (canine CM) or small PI (rabbit atria, rat heart)
- EC50 (cardiac contractility; [8]): ~30000 nM
- Expected cardiac effects in vivo (heart): None or PI (dogs, men)
- changes in CA on the EHT platform (ERC18 hiPSC-CM EHTs [1]): 19%–33

Compound: C[C@H](N[C@@H](CCc1ccccc1)C(=O)O)C(=O)N1CCC[C@H]1C(=O)O [Enalaprilat]
- FTPC [2]: 0.12 µM
- FPTC (free plasma therapeutic concentration) [2]: 0.12 µM
- inotropic effect via bradykinin B1 receptor activation (cardiac contractility; ACE inhibitors, ref Ignjatovic et al., 2002): positive inotropic effect
- Expected effect on contractility in isolated cardiomyocytes/heart muscles (cardiac contractility; [8]): None
- Expected cardiac effects in vivo (heart): None
- CA (contraction amplitude) (ERC18 hiPSC-CM EHTs [1]; [9]): +2 ^10 µM %
- CT (contraction time) (ERC18 hiPSC-CM EHTs [1]; [9]): −3%
- RT (relaxation time) (ERC18 hiPSC-CM EHTs [1]; [9]): −4%
- CA (contraction amplitude) (R-PAT hiPSC-CMs [3]): +54%
- CT (contraction time) (R-PAT hiPSC-CMs [3]): +20 ^10 µM %
- RT (relaxation time) (R-PAT hiPSC-CMs [3]): +34%
- CA (contraction amplitude) (R-PAT hiPSC-CM EHTs; [10]): +33%
- CT (contraction time) (R-PAT hiPSC-CM EHTs; [10]): +5 ^1 µM %
- RT (relaxation time) (R-PAT hiPSC-CM EHTs; [10]): −14%
- changes in CA on the EHT platform (R-PAT hiPSC-CM EHTs; one range given for three NE drugs incorrectly predicted as PIs, EHT: R-PAT per Table 1): 19%–33

Compound: CC[C@H](C)C(=O)O[C@H]1C[C@H](O)C=C2C=C[C@H](C)[C@H](CC[C@@H](O)C[C@@H](O)CC(=O)O)[C@H]21 [Pravastatin]
- FTPC [2]: 0.018 µM
- FPTC (free plasma therapeutic concentration) [2]: 0.018 µM
- Expected effect on contractility in isolated cardiomyocytes/heart muscles (cardiac contractility; [8]): None
- Expected cardiac effects in vivo (heart): None
- changes in CA on the EHT platform (ERC18 hiPSC-CM EHTs [1]): 19%–33

Compound: COc1cccc2c1C(=O)c1c(O)c3c(c(O)c1C2=O)C[C@@](O)(C(=O)CO)C[C@@H]3O[C@H]1C[C@H](N)[C@H](O)[C@H](C)O1 [Doxorubicin]
- FTPC [2]: 1 to 2 µM
- FPTC (free plasma therapeutic concentration) [2]: 1 to 2 µM
- Expected effect on contractility in isolated cardiomyocytes/heart muscles (cardiac contractility; [8]): PI+NCl and reduced post-rest potentiation at 30 µM (GP), but strong NI at 1000 µM (GP, rat); rate-dependent
- reported inotropic effects (cardiac contractility; ref Kim et al., 1980, Vanboxtel et al., 1978, Wang and Korth, 1995): transient positive inotropy is followed by robust negative inotropy at higher concentrations
- Expected cardiac effects in vivo (heart): NI, time course of cardiotox dose-dependent
- time after which EHT contraction ceased (ERC18 hiPSC-CM EHTs [4]): 17.5 h
- inotropy trend with 24 h treatment (R-PAT hiPSC-CMs [5]; 1 to 30 µM, increased CA, decreased CT): trend of positive inotropy
- effect of exposure to the highest concentration for 24 h (R-PAT hiPSC-CMs [5]; highest concentration): loss of contraction and cell death
- electrophysiology after 30 min exposure (hiPSC-CMs [6]): altered electrophysiology; also recorded: changes in electrophysiology

Compound: CC(C)NCC(O)c1ccc(O)c(O)c1 (stereo not shown) [isoprenaline]
- FTPC [2]: 0.0095 µM
- EC50 (cardiac contractility; [8]): 10 nM
- Expected cardiac effects in vivo (heart): PI, PC
- CT and RT response (hiPSC-CMs [7]; 3D EHTs): decreased of both CT and RT
- inotropy (CA) response (hiPSC-CMs [7]): positive inotropy

Compound: COC(=O)N1CCN(Cc2cccc(NC(=O)Nc3ccc(C)nc3)c2F)CC1 [Omecamtiv mecarbil]
- FTPC [2]: 0.05 to 0.42 µM
- Expected effect on contractility in isolated cardiomyocytes/heart muscles (cardiac contractility; [8]): PI, NCl, NL, diastolic shortening (dog myocytes)
- EC50 (cardiac contractility; [8]): 1000 nM
- Expected cardiac effects in vivo (heart): PI, prolonged syst. ejection time, small decrease in heart rate
- increased CT (R-PAT hiPSC-CM EHTs; hiPSC-CMs configured as 3D EHTs, blinded phase, without convincing evidence for increased CA): approximately +40%

Compound: COC(=O)C1=C(C)NC(C)=C(C(=O)OC)C1c1ccccc1[N+](=O)[O-] [nifedipine]
- IC50 (cardiac contractility; negative inotropy, isolated cardiomyocytes/heart muscles, Refs of Supplementary Table 1, read-out: Expected effect on contractility in isolated cardiomyocytes/heart muscles, IC50): 100 nM
- Expected cardiac effects in vivo (heart): Small NI (direct) overridden by adrenergic activation, PC (indirect)
- inotropy (CA) response (hiPSC-CMs [7]): negative inotropy
